According to article PMC8620685, “Effect of Selected Silyl Groups on the Anticancer Activity of 3,4-Dibromo-5-Hydroxy-Furan-2(5H)-One Derivatives” (Pharmaceuticals, 2021):
Entries after “also recorded” stand apart in the source; their conditions may differ. Like-named read-outs stand apart in the source and are kept apart here.

Legend:
HT-29 = test: MTT assay, HT-29; format: cell-based; details: Homo sapiens, HT-29, 72 h, read-out: IC50 (cytotoxicity), HT-29
Description: (§1) The in vitro antitumor activities of the MBA and its derivatives (Table 2) were assayed against a panel of human cancer cell lines (HCT116, HCT-116 ^−/−p53, HT-29, MCF-7, SJSA-1, U2OS, HepG2 and Hep3B) using the MTT assay. As a reference drug we used 5-fluorouracil (5-FU). […] On the basis of in vitro antiproliferative activities, compounds 3b and 3c were selected for further mechanistic studies in the HCT-116 cell line.
(§2) Human cells lines: colon cancer (HCT-116 wt, HT-29), non-small lung carcinoma (A549), and bronchial epithelial cells (BEAS-2B) were obtained from American Type Culture Collection (ATCC, Manassas, VA, USA). Isogenic cell line HCT 116 p53^−/− (deleted both p53 alleles) were a gift from Dr. Bert Vogelstein. Other cell lines, namely MCF-7, SJSA-1, U2OS, HepG2, and Hep3B were received from the collection stored at Centre of Biotechnology of Silesian University of Technology. All cells were grown in DMEM with a high glucose medium (Sigma-Aldrich, Taufkirchen, Germany) supplemented with 10% (v/v) inactivated fetal bovine serum (FBS) (EURx, Gdańsk, Poland) and 1% antibiotics (10,000 μg/mL of streptomycin and 10,000 units/ml of penicillin) (Sigma-Aldrich, Taufkirchen, Germany) at 37 °C in humidified 5% CO2. The maximum concentration of DMSO in the culture media was 0.4%.
(§3) 5 × 10^3 cells per well for the MCF-7 cell line and 2.5 × 10^3 cells per well for the other cell lines were seeded in 96-well plates to adhere for 24 h. Afterward, the cells were treated with tested compounds. After 72 hours of incubation, 50 μL 0.5 mg/ml solution of MTT (3-(4,5-dimethylthiazol-2-yl)-2,5-diphenyl-2H-tetrazolium bromide) were added to each well and the plates were incubated for 3 h at 37 °C. Next, the MTT solution was removed from the plates and formed formazan crystals were dissolved in 2-propanol (Avantor Performance Materials, Gliwice, Poland) containing 0.04 M hydrochloric acid (Avantor Performance Materials, Gliwice, Poland). The absorbance was measured at 570 nm wavelength using a multiwall plate reader (BioTek, Winooski, VT, USA). The experiment was performed at a minimum of 3 independent replicates. Cell viability was set as a percentage versus vehicle control. IC50 was defined as a concentration of a drug that decreased cell viability by 50% relative to the untreated control.

survivin = test: Human Apoptosis Proteome Profiler array, survivin; format: cell-based; details: HCT-116, 1 h exposure, 2 × IC50
Description: (§4) To explore in detail the molecular mechanism of apoptosis induction by compounds 3b and 3c, we employed Human Apoptosis Proteome Profiler arrays that allow quantification of apoptosis-related biomarkers (Figure 3C). […] Collectively, it can be concluded that silyl derivative 3b promotes cell death in HCT 116 cells by the alteration of expression levels of survivin and activation of caspase-3.
(§5) The Human Apoptosis Array Kit (R&D Systems, Abingdon, UK) was used to determine the levels of expression of apoptosis-related proteins. 2.5 × 10^5 HCT 116 wt cells were seeded on 100 mm dishes (Nunc, ThermoFisher, Waltham, MA, USA) and allowed to attach for 24 h. Then the medium was replaced with tested compounds at a concentration corresponding 2 × IC50 value and the cells were incubated in 37 °C. After 60 min the cells were lysed and the lysates were clarified by centrifugation for 30 min at 14,000× g. The total protein concentration was measured using the Protein Quantification Kit-Rapid (Sigma-Aldrich, Taufkirchen, Germany) according to the manufacturer’s instruction. The next steps followed instructions from the manufacturer of the Human Apoptosis Array Kit. The membranes were then scanned in the G:Box trans illuminator (Syngene, Cambridge, UK) and the protein expression levels were quantified by densitometric analysis using ImageJ software.

[1] = MTT assay, normal bronchial epithelium cell line BEAS-2B; format: cell-based; details: human
Description: One of the major drawbacks of currently used anticancer drugs is their low selectivity, which often leads to undesired side effects that may be harmful to patients. Overcoming this challenging task requires special attention at the pre-clinical development level. To check whether silyl group incorporation may affect the selectivity of compounds towards cancer cells, MBA and all its new silyl derivatives were tested for their efficacy on noncancerous BEAS-2B and cancerous A549 cells line. […] In contrast, compounds 3a and 3d were more cytotoxic to A549 cells with SI values 6.05 and 1.72, respectively. Strikingly, those two compounds have similar cLogP values 3.08 and 3.22, respectively.
as §2, §3

cleaved caspase-3 = test: Human Apoptosis Proteome Profiler array, cleaved caspase-3; format: cell-based; details: HCT-116, 1 h exposure, 2 × IC50 (3b at 30.2 μM)
Description: as §4, §5

HepG2 = test: MTT assay, HepG2; format: cell-based; details: Homo sapiens, read-out: IC50 (cytotoxicity), HepG2
Description: as §1, §2
as §3, with “The experiment was performed at a minimum of 3 independent replicates. Cell viability was set as a percentage versus vehicle control. IC50 was defined as a concentration of a drug that decreased cell viability by 50% relative to the untreated control.” left out

HCT-116 cells = test: Clonogenic (colony-formation) assay; format: cell-based, human; details: HCT-116, 10 μM for 24 h, then 10 days in drug-free medium
Description: We next sought to investigate the effects of the MBA and compound 3b clonogenic potential of the HCT-116 cell line. The cells were treated with compounds 1 and 3b at 10 μM for 24 h. After harvesting, the cells were re-seeded and cultivated for another 10 days in a drug-free medium.
The HCT116 wt cells (5 × 10^4 cells/well) were plated in 6-well plates (Nunc, ThermoFisher, Waltham, USA) and treated with the tested compounds for 24 and 72 h. Cells were harvested by trypsinization and then re-seeded on the new 6-well plate (Nunc, ThermoFisher, Waltham, MA, USA) with a density of 2 × 10^3 cells/well. After 10 days the cells were washed with cold PBS (Sigma-Aldrich, Taufkirchen, Germany), fixed in ice-cold ethanol (−20 °C) for 3 minutes, air-dried, washed again with cold PBS and stained with 0.01% crystal violet (Sigma-Aldrich, Taufkirchen, Germany) in dH2O (deionized water) for 15 min. Next the plates were washed in dH2O and allowed to dry. Colonies were counted with a microscope (Zeiss, Oberkochen, Germany). Aggregates of 30 cells or more were considered as colonies. Photos were made using the G:Box transilluminator (Syngene, Cambridge, UK).

MCF-7 = test: MTT assay, MCF-7; format: cell-based, human; details: Homo sapiens, MCF7, 72 h, read-out: IC50 (cytotoxicity), MCF-7, MTT, 72 h incubation
Description: as §1, §2, §3

[2] = test system: panel of human cancer cell lines (HCT116, HCT-116 −/−p53, HT-29, MCF-7, SJSA-1, U2OS, HepG2 and Hep3B); test: MTT assay, panel of human cancer cell lines; format: cell-based; details: 72 h incubation, read-out: IC50 range across all tested cancer cells
Description: as §1
Human cells lines: colon cancer (HCT-116 wt, HT-29), non-small lung carcinoma (A549), and bronchial epithelial cells (BEAS-2B) were obtained from American Type Culture Collection (ATCC, Manassas, VA, USA). Isogenic cell line HCT 116 p53^−/− (deleted both p53 alleles) were a gift from Dr. Bert Vogelstein. Other cell lines, namely MCF-7, SJSA-1, U2OS, HepG2, and Hep3B were received from the collection stored at Centre of Biotechnology of Silesian University of Technology. […]
5 × 10^3 cells per well for the MCF-7 cell line and 2.5 × 10^3 cells per well for the other cell lines were seeded in 96-well plates to adhere for 24 h. […] The absorbance was measured at 570 nm wavelength using a multiwall plate reader (BioTek, Winooski, VT, USA). […]

[3] = BEAS-2B cells (noncancerous bronchial epithelial cells), MTT, 72 h incubation, noncancerous cells, read-out: IC50 (cytotoxicity), BEAS-2B

Row | SMILES | IC50 (HT-29) | survivin expression (survivin) | IC50 at 72 h [1, 3] | cleaved caspase-3 level (caspase-3 activation) (cleaved caspase-3) | IC50 (HepG2; HepG2, MTT, 72 h incubation) | clonogenic potential (re-growth of colonies) (HCT-116 cells) | IC50 (MCF-7) | IC50 [2] | IC50 at 72 h [1] | IC50 (HepG2; HepG2, 72 h)
1 | CC(C)[Si](OC1OC(=O)C(Br)=C1Br)(C(C)C)C(C)C (stereo not shown) [Compound 3b, 3,4-Dibromo-5-(triisopropylsilyloxy)-furan-2(5H)-one] | 7.3 ± 0.8 µM | down-regulation of survivin | 12.5 ± 1.4 µM | significant up-regulation of cleaved caspase-3 | 15.6 ± 1.2 µM | completely abolished the re-growth of HCT-116 colonies; also recorded: abolishes the clonogenic potential | 7.7 ± 0.9 µM | 7.3 to 21.3 µM | – | –
2 | CC(C)(C)[Si](OC1OC(=O)C(Br)=C1Br)(c1ccccc1)c1ccccc1 (stereo not shown) [Compound 3c, 3,4-Dibromo-5-(tert-butyldiphenylsilyloxy)-furan-2(5H)-one] | 3.9 ± 0.2 µM | – | 20.3 ± 0.6 µM | neither the MBA nor compound 3c induced caspase-3 activation | – | – | 10.9 ± 0.7 µM | 3.9 to 65.6 µM | – | –
3 | O=C1OC(O)C(Br)=C1Br (stereo not shown) [MBA, 3,4-dibromo-5-hydroxyfuran-2(5H)-one, reference compound] | 97.1 ± 6.6 µM | – | – | neither the MBA nor compound 3c induced caspase-3 activation | – | attenuated the clonogenic potential of HCT-116 to a much less extent | 142 ± 22.6 µM | – | 39.7 ± 9.7 µM | 91.7 ± 2.2 µM
